What was measured:
[1] = Inhibition of Penicillium decumbens alpha-L-rhamnosidase assessed as reduction in hydrolysis of p-nitrophenyl-a-L-rhamnopyranoside
Rattus norvegicus [2] = organism: Rattus norvegicus; assay: Inhibition of rat intestinal maltase assessed as D-glucose level at 1000 uM using maltose as substrate measured after 10 to 30 mins
Escherichia coli [3] = assay: Inhibition of Escherichia coli beta-glucuronidase at 1000 uM using p-nitrophenyl-glycoside as substrate by spectrophotometric method
[4] = biological target: T1, Tissue alpha-L-fucosidase (Bos taurus) (UniProt Q2KIM0); assay: Inhibition of bovine kidney alpha-L-fucosidase at 1000 uM using p-nitrophenyl-glycoside as substrate by spectrophotometric method
T1 sequence (whole entry): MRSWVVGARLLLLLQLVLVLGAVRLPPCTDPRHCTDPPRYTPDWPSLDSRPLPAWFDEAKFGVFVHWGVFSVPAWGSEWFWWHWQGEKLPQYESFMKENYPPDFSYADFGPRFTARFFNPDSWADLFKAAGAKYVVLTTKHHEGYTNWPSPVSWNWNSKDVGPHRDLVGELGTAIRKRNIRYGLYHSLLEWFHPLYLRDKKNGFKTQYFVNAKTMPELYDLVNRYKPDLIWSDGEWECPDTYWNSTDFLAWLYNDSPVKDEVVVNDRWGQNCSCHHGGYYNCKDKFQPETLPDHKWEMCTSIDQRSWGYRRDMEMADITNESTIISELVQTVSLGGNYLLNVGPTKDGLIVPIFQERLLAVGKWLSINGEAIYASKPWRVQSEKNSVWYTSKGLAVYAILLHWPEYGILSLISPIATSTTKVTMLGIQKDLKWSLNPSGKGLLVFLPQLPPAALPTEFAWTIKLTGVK

[5] = Inhibition of Penicillium decumbens alpha-L-rhamnosidase using p-nitrophenyl-glycoside as substrate by spectrophotometric method
[6] = biological target: T2, Uncharacterized protein (Sus scrofa) (UniProt I3LIR5); assay: Inhibition of porcine kidney trehalase assessed as D-glucose level at 1000 uM using maltose as substrate measured after 10 to 30 mins
T2 sequence (whole entry): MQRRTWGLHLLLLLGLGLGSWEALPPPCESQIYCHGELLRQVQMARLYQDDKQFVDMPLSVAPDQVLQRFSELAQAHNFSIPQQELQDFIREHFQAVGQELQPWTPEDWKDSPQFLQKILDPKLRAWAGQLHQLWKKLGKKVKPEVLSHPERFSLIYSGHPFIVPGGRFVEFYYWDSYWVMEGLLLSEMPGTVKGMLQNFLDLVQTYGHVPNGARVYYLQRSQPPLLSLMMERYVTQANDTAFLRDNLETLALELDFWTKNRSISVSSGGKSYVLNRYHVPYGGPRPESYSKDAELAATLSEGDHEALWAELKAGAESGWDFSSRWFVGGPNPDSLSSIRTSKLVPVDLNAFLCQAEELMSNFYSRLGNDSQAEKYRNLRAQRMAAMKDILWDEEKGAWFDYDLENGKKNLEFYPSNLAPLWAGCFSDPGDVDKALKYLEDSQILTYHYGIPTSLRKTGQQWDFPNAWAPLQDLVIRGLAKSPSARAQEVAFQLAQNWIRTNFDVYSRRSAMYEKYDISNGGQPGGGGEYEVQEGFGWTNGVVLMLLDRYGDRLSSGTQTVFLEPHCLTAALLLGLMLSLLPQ

Prunus dulcis [7] = assay: Inhibition of almond beta-glucosidase at 1000 uM using p-nitrophenyl-glycoside as substrate by spectrophotometric method
[8] = Inhibition of rice alpha-glucosidase using p-nitrophenyl-glycoside as substrate by spectrophotometric method; parameters: species or system Oryza sativa
Beta-galactosidase = biological target: T3, Beta-galactosidase (Bos taurus, UniProt Q58D55); assay: Inhibition of bovine liver beta-galactosidase using p-nitrophenyl-glycoside as substrate by spectrophotometric method
T3 sequence (Q58D55 whole entry): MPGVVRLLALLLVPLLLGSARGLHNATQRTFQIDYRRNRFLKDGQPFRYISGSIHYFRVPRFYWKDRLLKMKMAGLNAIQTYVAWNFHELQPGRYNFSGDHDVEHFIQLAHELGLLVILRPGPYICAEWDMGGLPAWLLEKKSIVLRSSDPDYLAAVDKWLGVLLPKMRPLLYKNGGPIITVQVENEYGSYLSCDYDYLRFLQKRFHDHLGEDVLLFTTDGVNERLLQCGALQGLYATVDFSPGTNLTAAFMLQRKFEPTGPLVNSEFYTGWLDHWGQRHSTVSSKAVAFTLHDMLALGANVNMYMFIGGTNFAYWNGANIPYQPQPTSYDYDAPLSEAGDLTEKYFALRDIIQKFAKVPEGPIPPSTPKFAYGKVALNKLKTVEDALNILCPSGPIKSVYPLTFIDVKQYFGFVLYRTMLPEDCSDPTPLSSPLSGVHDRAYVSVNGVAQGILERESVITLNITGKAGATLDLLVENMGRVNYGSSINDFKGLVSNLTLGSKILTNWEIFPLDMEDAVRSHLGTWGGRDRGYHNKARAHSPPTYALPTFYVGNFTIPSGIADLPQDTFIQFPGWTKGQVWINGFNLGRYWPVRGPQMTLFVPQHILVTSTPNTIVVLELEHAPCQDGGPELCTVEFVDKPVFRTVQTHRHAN

Homo sapiens [9] = organism: Homo sapiens; assay: Inhibition of human lysosomal beta-glucosidase at 1000 uM using 4-methylumbelliferyl-beta-D-glucopyranoside as substrate preincubated for 45 mins followed by substrate addition measured after 30 mins by fluorescence spectrophotometric method
Bos taurus [10] = organism: Bos taurus; assay: Inhibition of bovine liver beta-glucosidase at 1000 uM using p-nitrophenyl-glycoside as substrate by spectrophotometric method
Aspergillus niger [11] = assay: Inhibition of Aspergillus niger amyloglucosidase assessed as D-glucose level at 1000 uM using maltose as substrate measured after 10 to 30 mins
[12] = biological target: T4, Alpha-mannosidase (Canavalia ensiformis) (UniProt C0HJB3); assay: Inhibition of Jack bean alpha-mannosidase at 1000 uM preincubated for 45 mins followed by addition of p-nitrophenyl-glycoside as substrate measured after 30 mins by fluorescence spectrophometry
T4 sequence (whole entry): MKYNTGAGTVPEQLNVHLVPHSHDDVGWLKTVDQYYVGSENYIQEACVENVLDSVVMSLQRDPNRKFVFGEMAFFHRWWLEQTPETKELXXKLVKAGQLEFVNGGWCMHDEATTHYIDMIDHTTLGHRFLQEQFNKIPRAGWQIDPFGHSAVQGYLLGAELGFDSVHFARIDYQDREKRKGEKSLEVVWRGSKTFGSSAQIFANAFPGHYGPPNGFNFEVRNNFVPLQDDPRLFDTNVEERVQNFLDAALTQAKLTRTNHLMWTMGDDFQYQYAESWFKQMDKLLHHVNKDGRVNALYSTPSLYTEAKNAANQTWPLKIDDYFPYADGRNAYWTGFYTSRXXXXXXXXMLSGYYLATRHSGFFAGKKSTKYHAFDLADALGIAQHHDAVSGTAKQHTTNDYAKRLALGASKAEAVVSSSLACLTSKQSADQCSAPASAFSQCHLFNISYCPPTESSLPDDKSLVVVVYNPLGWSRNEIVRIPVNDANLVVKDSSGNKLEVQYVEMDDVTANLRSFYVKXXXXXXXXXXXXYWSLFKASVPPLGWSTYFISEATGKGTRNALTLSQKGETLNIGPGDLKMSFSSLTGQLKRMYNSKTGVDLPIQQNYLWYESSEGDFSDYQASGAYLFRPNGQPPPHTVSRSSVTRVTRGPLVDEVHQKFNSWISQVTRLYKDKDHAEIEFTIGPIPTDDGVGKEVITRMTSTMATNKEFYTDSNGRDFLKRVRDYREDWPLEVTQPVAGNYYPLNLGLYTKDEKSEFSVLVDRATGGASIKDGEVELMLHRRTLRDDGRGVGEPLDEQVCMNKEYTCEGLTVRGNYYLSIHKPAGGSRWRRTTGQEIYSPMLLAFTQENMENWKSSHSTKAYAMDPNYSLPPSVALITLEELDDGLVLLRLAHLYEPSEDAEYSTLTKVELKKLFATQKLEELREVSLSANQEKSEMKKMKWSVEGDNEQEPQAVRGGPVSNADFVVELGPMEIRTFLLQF

Saccharomyces cerevisiae = assay: Inhibition of yeast alpha-glucosidase at 1000 uM using p-nitrophenyl-glycoside as substrate by spectrophotometric method
Helix pomatia = assay: Inhibition of Helix pomatia beta-mannosidase at 1000 uM using p-nitrophenyl-glycoside as substrate by spectrophotometric method
Coffea = assay: Inhibition of coffee bean alpha-galactosidase at 1000 uM using p-nitrophenyl-glycoside as substrate by spectrophotometric method
Escherichia coli [13] = assay: Inhibition of Escherichia coli beta-galactosidase at 1000 uM using p-nitrophenyl-glycoside as substrate by spectrophotometric method
Penicillium decumbens = assay: Inhibition of Penicillium decumbens alpha-L-rhamnosidase at 1000 uM using p-nitrophenyl-glycoside as substrate by spectrophotometric method
Oryza sativa [14] = assay: Inhibition of rice alpha-glucosidase at 1000 uM using p-nitrophenyl-glycoside as substrate by spectrophotometric method
[15] = biological target: T5, Beta-galactosidase (Bos taurus) (UniProt Q58D55); assay: Inhibition of bovine liver beta-galactosidase at 1000 uM using p-nitrophenyl-glycoside as substrate by spectrophotometric method
T5 sequence (whole entry): T3 sequence (Q58D55 whole entry)

[16] = biological target: T2, Uncharacterized protein (Sus scrofa); assay: Inhibition of porcine kidney trehalase assessed as D-glucose level at 100 uM using maltose as substrate measured after 10 to 30 mins
Rattus norvegicus [17] = organism: Rattus norvegicus; assay: Inhibition of rat intestinal maltase assessed as D-glucose level at 100 uM using maltose as substrate measured after 10 to 30 mins
[18] = biological target: T1, Tissue alpha-L-fucosidase (Bos taurus); assay: Inhibition of bovine kidney alpha-L-fucosidase at 100 uM using p-nitrophenyl-glycoside as substrate by spectrophotometric method
Homo sapiens [19] = organism: Homo sapiens; assay: Inhibition of human lysosomal beta-glucosidase at 100 uM using 4-methylumbelliferyl-beta-D-glucopyranoside as substrate preincubated for 45 mins followed by substrate addition measured after 30 mins by fluorescence spectrophotometric method
Escherichia coli [20] = assay: Inhibition of Escherichia coli beta-glucuronidase at 100 uM using p-nitrophenyl-glycoside as substrate by spectrophotometric method
Aspergillus niger [21] = assay: Inhibition of Aspergillus niger amyloglucosidase assessed as D-glucose level at 100 uM using maltose as substrate measured after 10 to 30 mins
Prunus dulcis [22] = assay: Inhibition of almond beta-glucosidase at 100 uM using p-nitrophenyl-glycoside as substrate by spectrophotometric method
[23] = biological target: T5, Beta-galactosidase (Bos taurus); assay: Inhibition of bovine liver beta-galactosidase at 100 uM using p-nitrophenyl-glycoside as substrate by spectrophotometric method
Bos taurus [24] = organism: Bos taurus; assay: Inhibition of bovine liver beta-glucosidase at 100 uM using p-nitrophenyl-glycoside as substrate by spectrophotometric method
Oryza sativa [25] = assay: Inhibition of rice alpha-glucosidase at 100 uM using p-nitrophenyl-glycoside as substrate by spectrophotometric method
[26] = Inhibition of bovine liver beta-glucosidase using p-nitrophenyl-glycoside as substrate by spectrophotometric method; parameters: species or system Bos taurus
[27] = Inhibition of human lysosomal beta-glucosidase using 4-methylumbelliferyl-beta-D-glucopyranoside as substrate preincubated for 45 mins followed by substrate addition measured after 30 mins by fluorescence spectrophotometric method

| SMILES | IC50 [1] | inhibition (Rattus norvegicus [2]) | inhibition (Escherichia coli [3]) | inhibition [4] | IC50 [5] | inhibition [6] | inhibition (Prunus dulcis [7]) | inhibition (Homo sapiens [9]) | inhibition (Bos taurus [10]) | inhibition (Aspergillus niger [11]) | inhibition [12] | inhibition (Saccharomyces cerevisiae) | inhibition (Helix pomatia) | inhibition (Coffea) | inhibition (Escherichia coli [13]) | further results |
| --- | --- | --- | --- | --- | --- | --- | --- | --- | --- | --- | --- | --- | --- | --- | --- | --- |
| C[C@H](O)[C@@H]1NC[C@H](O)[C@@H]1O | 4 µM | – | – | – | – | – | – | – | – | – | – | – | – | – | – | – |
| O[C@@H]1[C@@H]2[C@@H](O)CCCN2C[C@@H]1O | 0.3 µM | – | – | – | – | – | – | – | – | – | – | – | – | – | – | – |
| CCCC/N=C1/SC[C@H]2[C@H](O)[C@@H](O)[C@H](CO)N12 | – | < 50% | < 50% | < 50% | 37 µM | < 50% | < 50% | < 50% | < 50% | < 50% | – | – | – | – | – | IC50 [8]: 339 µM; IC50 (Beta-galactosidase): 719 µM |
| OC[C@@H]1N[C@@H](CO)[C@H](O)[C@H]1O | – | – | – | – | – | – | < 50% | < 50% | < 50% | < 50% | < 50% | < 50% | < 50% | < 50% | < 50% | inhibition (Penicillium decumbens): < 50% |
| C[C@H](O)[C@H]1[C@@H](O)[C@@H](O)c2nnnn21 | 70 µM | – | – | – | – | – | – | – | – | – | – | – | – | – | – | – |
| CCCCCCCC/N=C1/SC[C@H]2[C@H](O)[C@@H](O)[C@H](CO)N12 | – | < 50% | < 50% | < 50% | 1.6 µM | < 50% | < 50% | < 50% | < 50% | < 50% | < 50% | < 50% | < 50% | < 50% | < 50% | inhibition (Oryza sativa [14]): < 50%; inhibition [15]: < 50% |
| OC[C@H]1[C@H](O)[C@@H](O)[C@@H]2CS/C(=N/CCCCCc3ccccc3)N12 | – | – | – | – | 1.8 µM | – | – | – | – | – | – | – | – | – | – | inhibition [16]: < 50%; inhibition (Rattus norvegicus [17]): < 50%; inhibition [18]: < 50%; inhibition (Homo sapiens [19]): < 50%; inhibition (Escherichia coli [20]): < 50%; inhibition (Aspergillus niger [21]): < 50%; inhibition (Prunus dulcis [22]): < 50%; inhibition [23]: < 50%; inhibition (Bos taurus [24]): < 50%; inhibition (Oryza sativa [25]): < 50% |
| CCCCCCCC/N=C1/SC[C@@H]2[C@@H](O)[C@H](O)[C@@H](CO)N12 | – | < 50% | < 50% | < 50% | – | < 50% | < 50% | – | – | < 50% | < 50% | < 50% | < 50% | < 50% | < 50% | inhibition (Oryza sativa [14]): < 50%; IC50 [26]: 63 µM; IC50 [27]: 2.4 µM; inhibition (Penicillium decumbens): < 50%; inhibition [15]: < 50% |

From ChEMBL document CHEMBL3868599, “Strategy for designing selective α-l-rhamnosidase inhibitors: Synthesis and biological evaluation of l-DMDP cyclic isothioureas” (Bioorg Med Chem, 2017)
